Assay results reported in patent US20150322403A1, “REGULATION OF EUKARYOTIC GENE EXPRESSION BY RIBOSOMAL READING-FRAME SWITCH EFFICIENCY CONTROL VIA REGULATORY ELEMENT UPSTREAM OF THE FRAMESHIFTING SITE” (NATIONAL CHUNG HSING UNIVERSITY, priority 2014, published 2015).

Key:
[1] = system: theo-OFF2 element and SAH-sensing pseudoknot stimulator; assay: -1 PRF activity, theo-OFF2 plus SAH-sensing pseudoknot, wheat germ lysate; type: biochemical; conditions: theo-OFF2 fused with SAH-dependent stimulator
Source text: We also fused theo-OFF2 with an SAH-dependent −1 PRF stimulator and examined the ligand-dependent −1 PRF activity in vitro using wheat germ lysate.

theo-OFF2 element = assay: -1 PRF activity analysis, upstream theo-OFF2 element, wheat germ extract; conditions: wheat germ lysate, compared with reticulocyte lysate
theo-ON element = assay: in vitro -1 PRF activity analysis, upstream theo-ON element, reticulocyte lysate; conditions: DU177 pseudoknot stimulator
[2] = system: theo-OFF1 element (theophylline aptamer); assay: in vitro -1 PRF activity analysis, upstream theo-OFF1 element, reticulocyte lysate; conditions: DU177 pseudoknot stimulator, increasing amounts of theophylline
Source text: The boxed nucleotides were deleted in the negative control theo-mOFF1 element.

[3] = system: GlcT-OFF RNA element (RAT sequence) upstream of the slippery site; assay: in vitro -1 PRF activity analysis, upstream GlcT-OFF element, reticulocyte lysate; type: biochemical; conditions: DU177 pseudoknot stimulator, increasing amounts of protein
Source text: (§1) Mfold was used to predict structures and free energies of the attenuator and anti-attenuator hairpins.
As the ribonucleic-antiterminator (RAT) sequence of Bacillus subtilis ptsGHI operon adopts an unstable internal loop conformation and can be stabilized by the binding of GlcT antiterminator protein (Langbein, I. et al, J. Mol. Biol. 293, 795-805, 1999), we designed a chimeric RNA element containing an RAT sequence (GlcT-OFF) with the 3′-side of RAT internal loop embedded in a stable hairpin stem and placed the chimeric RNA element upstream of the slippery site with a potent downstream −1 PRF stimulator (FIG. 3A). We rationalized that the engineered hairpin is the dominant conformation and serves as an upstream −1 PRF attenuator, whereas the addition of GlcT protein should disrupt the attenuator hairpin via RAT-GlcT complex formation and thus restore −1 PRF activity.
We then designed the second chimera to down-regulate the −1 PRF by the formation of an efficient attenuator hairpin promoted by the same RNA-protein interactions (FIG. 3A).

GlcT-ON RNA element = assay: in vitro -1 PRF activity analysis, upstream GlcT-ON element, reticulocyte lysate; type: biochemical; conditions: DU177 pseudoknot stimulator, increasing amounts of protein
Source text: as §1
Therefore, the GlcT-ON RNA element is embedded with three potential RNA motifs; that is, an RAT internal loop, an anti-attenuator hairpin and an efficient −1 PRF attenuator hairpin with the component of the anti-attenuator hairpin being overlapped with the other two motifs. Without the GlcT protein, this anti-attenuator hairpin might be the dominant conformation. Upon GlcT protein addition, the equilibrium might be driven by RNA-protein interaction to disrupt the anti-attenuator hairpin stem and thus release its 3′-side to facilitate the formation of an efficient −1 PRF attenuator hairpin.
Together, these proof-of-principle experiments indicate that −1 PRF activity can be regulated in-trans via a set of RNA-protein interactions designed to control the formation of an upstream −1 PRF attenuation hairpin.

Nc1ncnc2c1ncn2[C@@H]1O[C@H](CSCC[C@H](N)C(=O)O)[C@@H](O)[C@H]1O [SAH]
-1 frameshifting efficiency in wheat germ lysate [1]: only mildly increased

Cn1c(=O)c2[nH]cnc2n(C)c1=O [theophylline]
dynamic range of theophylline-dependent -1 PRF activity, theo-OFF2 (theo-OFF2 element): even higher dynamic range
-1 PRF activity of reporter with theo-ON (theo-ON element): down-regulation
in vitro -1 PRF activity of reporter harboring theo-OFF1 [2]: up-regulated

B1: GlcT protein: GlcT antiterminator protein binding the RAT sequence of Bacillus subtilis ptsGHI operon (protein, UniProt O31691 1-281, looked up)
PtsGHI operon antiterminator: MNGSFTVKKVLNNNVLIASHHKYSEVVLIGKGIGFGKKQDDVIEDKGYDKMFILKDEKEQKQFKKLLDYVDEKLVDISNDVIYHISNRTNHSLNEHIHIALTDHIAFAIKRQQQGFDMKNPFLMETQSLYPEEYQIAKEVIDMINEKAGLCLPEGEIGFIALHIHSALTNRPLSEVNQHSQLMAQLVEVIEDSFQMKVNKESVNYLRLIRHIRFTIERIKKEEPTKEPEKLMLLLKNEYPLCYNTAWKLIKILQQTLKKPVHEAEAVYLTLHLYRLTNKIS
in vitro -1 PRF efficiency of reporter containing GlcT-OFF [3]: up-regulated
in vitro -1 PRF activity of reporter containing GlcT-ON (GlcT-ON RNA element): repressed
